The structures appear in SMILES notation. Structures can show the parent of a compound that is named as a salt. Some results are limits rather than exact numbers.

For assay [1], the system named is HEK293 FOP control reporter cell line. The experiment in a line: HEK293 FOP Assay (FOP control vector luciferase reporter). Format: cell-based. Conditions: Homo sapiens, HEK293 FOP control reporter cell line, 16 hours incubation, compound dilution series 50 μM to 15 nM. The essentials:
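Compound series 50 μM to 15 nM, 3.16-fold steps, were diluted in CAFTY buffer (pH 7.4, 2 mM Ca2+, 0.01% BSA) and tested alongside the TOP reporter line. Human Wnt-3a was added at 2500–5 ng/ml in two-fold steps. The control HEK293 line stably holds an FOP vector whose TCF elements are randomized and non-functional.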

The target in a further assay is T1, TNKS1 (Homo sapiens, UniProt O95271).
T1 sequence (O95271 1-1327): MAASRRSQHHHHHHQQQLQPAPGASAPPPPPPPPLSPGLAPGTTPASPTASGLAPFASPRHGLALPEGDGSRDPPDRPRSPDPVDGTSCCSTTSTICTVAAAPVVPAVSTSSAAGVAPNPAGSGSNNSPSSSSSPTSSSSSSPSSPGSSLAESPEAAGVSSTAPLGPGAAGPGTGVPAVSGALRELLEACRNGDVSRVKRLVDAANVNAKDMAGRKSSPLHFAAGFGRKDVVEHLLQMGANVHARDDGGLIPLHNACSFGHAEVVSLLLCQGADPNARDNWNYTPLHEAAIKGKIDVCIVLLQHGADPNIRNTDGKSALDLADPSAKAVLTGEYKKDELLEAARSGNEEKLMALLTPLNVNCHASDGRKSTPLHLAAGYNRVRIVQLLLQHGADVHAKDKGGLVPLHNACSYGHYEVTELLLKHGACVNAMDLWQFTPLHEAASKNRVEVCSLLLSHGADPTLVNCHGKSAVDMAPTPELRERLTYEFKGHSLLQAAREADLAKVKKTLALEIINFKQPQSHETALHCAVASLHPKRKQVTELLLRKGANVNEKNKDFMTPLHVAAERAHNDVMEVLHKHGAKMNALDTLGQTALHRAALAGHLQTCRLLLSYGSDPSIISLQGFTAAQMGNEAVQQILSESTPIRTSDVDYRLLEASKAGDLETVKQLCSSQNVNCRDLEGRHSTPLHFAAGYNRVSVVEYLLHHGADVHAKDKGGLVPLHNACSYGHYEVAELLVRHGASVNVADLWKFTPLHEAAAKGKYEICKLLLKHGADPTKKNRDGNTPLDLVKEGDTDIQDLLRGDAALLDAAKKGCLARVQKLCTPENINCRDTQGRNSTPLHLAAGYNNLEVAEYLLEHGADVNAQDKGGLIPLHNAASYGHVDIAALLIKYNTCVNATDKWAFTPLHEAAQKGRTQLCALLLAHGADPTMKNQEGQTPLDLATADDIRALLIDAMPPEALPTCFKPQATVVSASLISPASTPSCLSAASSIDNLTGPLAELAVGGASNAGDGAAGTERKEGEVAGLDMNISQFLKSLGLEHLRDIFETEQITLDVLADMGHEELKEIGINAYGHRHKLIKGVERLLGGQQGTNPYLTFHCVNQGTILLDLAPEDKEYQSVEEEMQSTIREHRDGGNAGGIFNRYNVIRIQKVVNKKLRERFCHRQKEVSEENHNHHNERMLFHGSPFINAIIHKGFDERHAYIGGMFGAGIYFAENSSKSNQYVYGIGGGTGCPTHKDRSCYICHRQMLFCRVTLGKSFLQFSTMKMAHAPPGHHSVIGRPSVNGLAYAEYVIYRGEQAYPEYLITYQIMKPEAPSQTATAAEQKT
Kind of assay: Modified TNKS1 Assay 3 (BPS kit #80573, biotin-NAD+, 96 well). Format: biochemical. The conditions noted are these: human TNKS1, BPS kit #80573, 96 well. How it is done: The potency of the compounds against human TNKS1 according to the invention was assessed using a commercially available biotin/streptavidin binding assay kits from BPS Bioscience, San Diego, USA (Catalog #80573 for TNKS1). The incorporation of a biotin-labeled NAD+ during the […] catalyzed ribosylation of a suitable protein substrate was detected using with a streptavidin-HRP coupled chemi-luminescent readout. The intensity of the readout signal is proportional to the incorporated NAD^+. Inhibition of TNKS1 leads to a decreased incorporation of NAD^+ and consequently to a lower readout signal intensity in the corresponding TNKS1 assays. The concentration of a test compound that inhibits the enzyme activity by 50% (corresponds to half of the normed readout signal intensity) is reported as IC50. The assay was conducted in a 96 well MTP format according to the manufacturer's protocol and using a BMG Pherastar MTP reader [BMG-Labtech, Offenburg, Germany].

Assay [2] has as its system wildtype Wnt signaling cascade. Kind of assay: HEK293 TOP Assay (Super TopFlash luciferase reporter, Wnt-3a stimulated). Type of assay: cell-based. Conditions: Homo sapiens, HEK293 TOP reporter cell line, Wnt-3a at EC50, 16 hours incubation, compound dilution series 50 μM to 15 nM. The essentials: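 Compounds (50 μM down to 15 nM, 3.16-fold steps, in CAFTY buffer pH 7.4, 2 mM Ca2+, 0.01% BSA) tested in parallel on TOP and FOP HEK293 reporter lines to define selective wildtype Wnt inhibition. Pathway driven by recombinant human Wnt-3a applied at 2500–5 ng/ml in two-fold dilutions.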
(Reporter assays use an easily measured gene product as a stand-in for the process of interest.)

The IC50 is the point on the concentration scale where inhibition reaches its midpoint. Lower therefore signals higher potency. Take `O=C(Nc1ccc(NC(=O)c2nc[nH]c2C(=O)NCCCN2CCCCC2)cc1)c1ccc(F)cc1Cl` [Example 297, N^4-{4-[(2-chloro-4-fluorobenzoyl)amino]phenyl}-N^5-[3-(piperidin-1-yl)propyl]-1H-imidazole-4,5-dicarboxamide]: the IC50 was 22.5 µM in assay [1]; over 0.5 µM at TNKS1; 1.05 µM in assay [2] (HEK293, 16 h).

For the compound `CC1CCCC(C)N1CCNC(=O)c1nc[nH]c1C(=O)Nc1ccc(NC(=O)c2ccc(F)cc2Cl)cc1` (stereo not shown) [Example 401, N^5-{4-[(2-chloro-4-fluorobenzoyl)amino]phenyl}-N^4-[2-(2,6-dimethylpiperidin-1-yl)ethyl]-1H-imidazole-4,5-dicarboxamide], the IC50 is 21 µM in assay [1]; 0.18 µM against TNKS1; 0.33 µM in assay [2] (HEK293, 16 h).

On to `O=C(Nc1ccc(NC(=O)c2[nH]cnc2C(=O)NCCN2CCCCC2)cc1)c1ccc(F)cc1Cl` [Example 127, N^5-{4-[(2-chloro-4-fluorobenzoyl)amino]phenyl}-N^4-[2-(piperidin-1-yl)ethyl]-1H-imidazole-4,5-dicarboxamide hydrochloride], for which the IC50 is 50 µM in assay [1] (HEK293, 16 h); 0.002 µM against TNKS1; 0.01 µM in assay [2].

Take `CCN(CC)CCCNC(=O)c1nc[nH]c1C(=O)Nc1ccc(NC(=O)c2ccc(F)cc2Cl)cc1` [Example 388, N^5-{4-[(2-chloro-4-fluorobenzoyl)amino]phenyl}-N^4-[3-(diethylamino)propyl]-1H-imidazole-4,5-dicarboxamide]: the IC50 in assay [1] was determined as 17 µM; against TNKS1 it was 0.03 µM; in assay [2] (HEK293, 16 h), 0.44 µM.

Regarding `CN1CCCCC1CNC(=O)c1nc[nH]c1C(=O)Nc1ccc(NC(=O)c2ccc(F)cc2Cl)cc1` (stereo not shown) [Example 410, N^5-{4-[(2-chloro-4-fluorobenzoyl)amino]phenyl}-N^4-[(1-methylpiperidin-2-yl)methyl]-1H-imidazole-4,5-dicarboxamide], the IC50 in assay [1] came to 18 µM; against TNKS1 it was 0.09 µM; in assay [2] (HEK293, 16 h), 0.11 µM.

In the case of `CC(C)[C@@H](CO)NC(=O)c1nc[nH]c1C(=O)Nc1ccc(NC(=O)c2ccc(F)cc2Cl)cc1` [Example 379, N^5-{4-[(2-chloro-4-fluorobenzoyl)amino]phenyl}-N^4-[(2S)-1-hydroxy-3-methylbutan-2-yl]-1H-imidazole-4,5-dicarboxamide], the IC50 against TNKS1 worked out at 0.19 µM; in assay [2] (HEK293, 16 h), 3.2 µM.

Turning to `O=C(Nc1ccc(NC(=O)c2nc[nH]c2C(=O)NCCN2CCC(O)CC2)cc1)c1ccc(F)cc1Cl` [Example 212, N^4-{4-[(2-chloro-4-fluorobenzoyl)amino]phenyl}-N^5-[2-(4-hydroxypiperidin-1-yl)ethyl]-1H-imidazole-4,5-dicarboxamide], the IC50 against TNKS1 is 0.005 µM; in assay [2] (HEK293, 16 h), 0.07 µM.

Consider `O=C(Nc1ccc(NC(=O)c2[nH]cnc2C(=O)NCCN2CCCCC2)cn1)c1ccccc1Cl` [Example 114, N^5-{6-[(2-chlorobenzoyl)amino]pyridin-3-yl}-N^4-[2-(piperidin-1-yl)ethyl]-1H-imidazole-4,5-dicarboxamide], for which the IC50 at TNKS1 was under 0.0005 µM; in assay [2] (HEK293, 16 h), 0.07 µM.

Take `CCN1CCC(CNC(=O)c2nc[nH]c2C(=O)Nc2ccc(NC(=O)c3ccc(F)cc3Cl)cc2)CC1` [Example 409, N^5-{4-[(2-chloro-4-fluorobenzoyl)amino]phenyl}-N^4-[(1-ethylpiperidin-4-yl)methyl]-1H-imidazole-4,5-dicarboxamide]: the IC50 turned out to be 32 µM in assay [1]; 0.08 µM against TNKS1; 0.19 µM in assay [2] (HEK293, 16 h).

Take `COC1CCN(CCNC(=O)c2[nH]cnc2C(=O)Nc2ccc(NC(=O)c3ccc(F)cc3Cl)cc2)C1` (stereo not shown) [Example 265, N^4-{4-[(2-chloro-4-fluorobenzoyl)amino]phenyl}-N^5-[2-(3-methoxypyrrolidin-1-yl)ethyl]-1H-imidazole-4,5-dicarboxamide]: the half-maximal inhibitory concentration (IC50) against TNKS1 was 0.007 µM; in assay [2] (HEK293, 16 h) it was 0.12 µM.

Take `CC(C)(C)NC(=O)c1[nH]cnc1C(=O)Nc1ccc(NC(=O)c2ccc(F)cc2Cl)cc1` [Example 133, N^5-tert-butyl-N^4-{4-[(2-chloro-4-fluorobenzoyl)amino]phenyl}-1H-imidazole-4,5-dicarboxamide]: the IC50 in assay [1] worked out at 8.7 µM; against TNKS1, 0.2 µM; in assay [2] (HEK293, 16 h) it was 0.43 µM.

Regarding `O=C(Nc1ccc(NC(=O)c2nc[nH]c2C(=O)NCCCN2CCCC(O)C2)cc1)c1ccc(F)cc1Cl` (stereo not shown) [Example 273, N^4-{4-[(2-chloro-4-fluorobenzoyl)amino]phenyl}-N^5-[3-(3-hydroxypiperidin-1-yl)propyl]-1H-imidazole-4,5-dicarboxamide], the IC50 was 21 µM in assay [1]; 0.03 µM against TNKS1; 1.55 µM in assay [2] (HEK293, 16 h).

For the compound `CCN(CC)CCNC(=O)c1nc[nH]c1C(=O)Nc1ccc(NC(=O)c2ccc(F)cc2Cl)cc1` [Example 382, N^5-{4-[(2-chloro-4-fluorobenzoyl)amino]phenyl}-N^4-[2-(diethylamino)ethyl]-1H-imidazole-4,5-dicarboxamide], the half-inhibitory concentration (IC50) was determined as 0.02 µM against TNKS1 and 0.12 µM in assay [2] (HEK293, 16 h).

For the compound `O=C(Nc1ccc(NC(=O)c2nc[nH]c2C(=O)NCCN2CCC[C@H](F)C2)cc1)c1ccc(F)cc1Cl` [Example 276, N^4-{4-[(2-chloro-4-fluorobenzoyl)amino]phenyl}-N^5-{2-[(3S)-3-fluoropiperidin-1-yl]ethyl}-1H-imidazole-4,5-dicarboxamide], the IC50 stood at 31 µM in assay [1]; 0.05 µM against TNKS1; 0.11 µM in assay [2] (HEK293, 16 h).

With `CCN1CCC(CNC(=O)c2nc[nH]c2C(=O)Nc2ccc(NC(=O)c3ccc(F)cc3Cl)cc2)C1` (stereo not shown) [Example 411, N^5-{4-[(2-chloro-4-fluorobenzoyl)amino]phenyl}-N^4-[(1-ethylpyrrolidin-3-yl)methyl]-1H-imidazole-4,5-dicarboxamide], the IC50 stood at 0.07 µM against TNKS1 and 0.29 µM in assay [2] (HEK293, 16 h).

Consider `O=C(Nc1ccc(NC(=O)c2nc[nH]c2C(=O)NCCN2CCC[C@@H](O)C2)cc1)c1ccc(F)cc1Cl` [Example 272, N^4-{4-[(2-chloro-4-fluorobenzoyl)amino]phenyl}-N^5-{2-[(3R)-3-hydroxypiperidin-1-yl]ethyl}-1H-imidazole-4,5-dicarboxamide], for which the IC50 came to 0.07 µM against TNKS1 and 0.12 µM in assay [2] (HEK293, 16 h).

`CN1CCC(CNC(=O)c2nc[nH]c2C(=O)Nc2ccc(NC(=O)c3ccc(F)cc3Cl)cc2)CC1` [Example 408, N^5-{4-[(2-chloro-4-fluorobenzoyl)amino]phenyl}-N^4-[(1-methylpiperidin-4-yl)methyl]-1H-imidazole-4,5-dicarboxamide]: the IC50 was 0.08 µM at TNKS1 and 0.3 µM in assay [2] (HEK293, 16 h).
